Laboratory results taken from ChEMBL document CHEMBL1138169, “Oxadiazole derivatives as a novel class of antimitotic agents: Synthesis, inhibition of tubulin polymerization, and activity in tumor cell lines” (Bioorg Med Chem Lett, 2006).
pEC50, pIC50: −log10 of the molar value.

Experiments:
Tubulin [1] = test: Inhibition of tubulin polymerization; assay type: functional, Homo sapiens
A-431 = test: Cell cycle arrest in A431 cells by accumulation at G2/M phase; assay type: functional, cell-based; conditions: Homo sapiens
NCI/ADR-RES = test: Cell cycle arrest in NCI/ADR (MDR) cells by accumulation at G2/M phase; assay type: functional, cell-based; conditions: Homo sapiens
Tubulin [2] = test: Displacement of [3H]colchicine from tubulin at 65 nM; assay type: protein-complex assay, Homo sapiens
[3] = Cmax in mouse at 60 mg/kg, ip; assay type: ADME, organism-based; set-up: dose 60 mg/kg, route intraperitoneal; conditions: in vivo
[4] = Half life in mouse at 60 mg/kg, ip; assay type: ADME, organism-based; set-up: dose 60 mg/kg, route intraperitoneal; conditions: in vivo
[5] = AUC (0-4 h) in mouse at 60 mg/kg, ip; assay type: ADME, organism-based; set-up: time < 4 hr, dose 60 mg/kg, route intraperitoneal; conditions: plasma
[6] = Cmax in mouse at 60 mg/kg, po; assay type: ADME, organism-based; set-up: dose 60 mg/kg, route oral; conditions: in vivo
[7] = Half life in mouse at 60 mg/kg, po; assay type: ADME, organism-based; set-up: dose 60 mg/kg, route oral; conditions: in vivo
[8] = AUC (0-4 h) in mouse at 60 mg/kg, po; assay type: ADME, organism-based; set-up: time < 4 hr, dose 60 mg/kg, route oral; conditions: plasma

Row | Structure (SMILES) | pIC50 (Tubulin [1]) | pEC50 (A-431) | other results
1 | c1cnc(NCc2ccncc2)c(-c2nnc(Nc3ccc4c(c3)OCO4)o2)c1 | 6.00 | 7.70 | pEC50 (NCI/ADR-RES): 8.11; pIC50 (Tubulin [2]): 7.52; Cmax [3]: 15.1 µM; half-life [4]: 2.6 h; AUC(0-t) at 4 h [5]: 52.6 µM·h
2 | CC(=O)O[C@H]1C(=O)[C@@]2(C)[C@H]([C@H](OC(=O)c3ccccc3)[C@]3(O)C[C@H](OC(=O)[C@H](O)[C@@H](NC(=O)c4ccccc4)c4ccccc4)C(C)=C1C3(C)C)[C@]1(OC(C)=O)CO[C@@H]1C[C@@H]2O [PACLITAXEL] |  | 8.05 | pEC50 (NCI/ADR-RES): < 5.00
3 | c1cnc(NCC2CCCO2)c(-c2nnc(Nc3ccc4c(c3)OCCO4)o2)c1 (centres undefined) | 5.77 | 6.80 | pEC50 (NCI/ADR-RES): 6.89; pIC50 (Tubulin [2]): 6.41; Cmax [3]: 16.4 µM; half-life [4]: 0.78 h; AUC(0-t) at 4 h [5]: 26.3 µM·h
4 | Fc1cnc(NCc2ccccn2)c(-c2nnc(Nc3ccc4c(c3)OCCO4)o2)c1 | 5.47 | 7.09 | 
5 | COc1ccc(/C=C\c2cc(OC)c(OC)c(OC)c2)cc1O [COMBRETASTATIN A4] |  | 8.46 | pEC50 (NCI/ADR-RES): 8.82
6 | c1ccc(CNc2ncccc2-c2nnc(Nc3ccc4c(c3)OCCO4)o2)nc1 | 5.72 | 7.80 | pEC50 (NCI/ADR-RES): 7.57; pIC50 (Tubulin [2]): 6.72; Cmax [3]: 12.5 µM; Cmax [6]: 3.8 µM; half-life [4]: 2.7 h; half-life [7]: 2.2 h; AUC(0-t) at 4 h [5]: 31.2 µM·h; AUC(0-t) at 4 h [8]: 8.8 µM·h
7 | c1ccc(CNc2ccccc2-c2cnc(Nc3ccc4c(c3)OCCO4)o2)nc1 | 5.85 | 7.46 | pEC50 (NCI/ADR-RES): 6.99; pIC50 (Tubulin [2]): 8.00; Cmax [3]: 4.6 µM; half-life [4]: 2.43 h; AUC(0-t) at 4 h [5]: 14.4 µM·h
8 | c1cnc(NCc2ccc3c(c2)OCO3)c(-c2nnc(Nc3ccc4c(c3)OCCO4)o2)c1 | 6.30 | 7.74 | 
9 | c1ccc(CNc2ccccc2-c2csc(Nc3ccc4c(c3)OCCO4)n2)nc1 | < 4.52 |  | 
10 | CS(=O)(=O)Nc1ccc(CNc2ncccc2-c2nnc(Nc3ccc4c(c3)OCCO4)o2)cc1 | 5.70 | 7.64 | 
11 | COc1cc(Nc2ncccc2-c2n[nH]c(Nc3ccc4c(c3)OCO4)n2)cc(OC)c1 |  |  | Cmax [3]: 7.3 µM; half-life [4]: 0.62 h; AUC(0-t) at 4 h [5]: 13.6 µM·h
12 | c1ccc(CNc2nccnc2-c2nnc(Nc3ccc4c(c3)OCCO4)o2)nc1 | 5.70 | 7.12 | 
13 | c1cncc(CNc2ncccc2-c2nnc(Nc3ccc4c(c3)OCCO4)o2)c1 | 6.15 | 7.89 | pEC50 (NCI/ADR-RES): 7.72; pIC50 (Tubulin [2]): 7.52; Cmax [3]: 6.5 µM; half-life [4]: 0.8 h; AUC(0-t) at 4 h [5]: 6.7 µM·h
14 | c1ccc(CNc2ncccc2-c2nnc(Nc3ccc4c(c3)OCO4)o2)nc1 | 5.77 | 7.31 | pEC50 (NCI/ADR-RES): 6.59; pIC50 (Tubulin [2]): 7.52; Cmax [3]: 4.9 µM; half-life [4]: 4.1 h; AUC(0-t) at 4 h [5]: 21.5 µM·h
15 | c1coc(CNc2ncccc2-c2nnc(Nc3ccc4c(c3)OCCO4)o2)c1 | 5.70 | 7.35 | 
16 | CN(c1ccc2c(c1)OCCO2)c1nnc(-c2cccnc2NCc2ccccn2)o1 | < 4.52 |  | 
17 | c1cnc(NCc2ccc3c(c2)OCCO3)c(-c2nnc(Nc3ccc4c(c3)OCCO4)o2)c1 | 5.74 | 7.24 | 
18 | c1ccc(COc2ncccc2-c2nnc(Nc3ccc4c(c3)OCCO4)o2)nc1 | 4.74 | 6.59 | 
19 | c1cnc(NCc2cnccn2)c(-c2nnc(Nc3ccc4c(c3)OCCO4)o2)c1 | 5.66 | 7.51 | 

Row | Structure (SMILES) | pIC50 (Tubulin [1]) | pEC50 (A-431) | other results
20 | Fc1ccc(CNc2ncccc2-c2nnc(Nc3ccc4c(c3)OCCO4)o2)cc1 | 5.30 | 7.22 | 
21 | c1cnc(NCc2cnccn2)c(-c2nnc(Nc3ccc4c(c3)OCO4)o2)c1 | 5.02 | 6.68 | 
22 | c1cncc(CNc2ncccc2-c2nnc(Nc3ccc4c(c3)OCO4)o2)c1 | 5.06 | 7.51 | 
23 | c1ccc(CNc2ccccc2-c2nnc(Nc3ccc4c(c3)OCCO4)o2)nc1 | 5.92 | 7.85 | pEC50 (NCI/ADR-RES): 7.43; pIC50 (Tubulin [2]): 6.41; Cmax [3]: 6.4 µM; half-life [4]: 1.5 h; AUC(0-t) at 4 h [5]: 17.2 µM·h
24 | Fc1ccc(CNc2ncccc2-c2nnc(Nc3ccc4c(c3)OCCO4)o2)cc1F | 6.15 | 7.82 | 
25 | c1ccc(CNc2ccccc2-c2c[nH]c(Nc3ccc4c(c3)OCCO4)n2)nc1 | < 4.52 |  | 
26 | c1cnc(NCc2ccncc2)c(-c2nnc(Nc3ccc4c(c3)OCCO4)o2)c1 | 4.52 | 7.74 | 
27 | COc1ccc(Nc2nnc(-c3cccnc3NCc3ccccn3)o2)cc1 | 5.82 | 7.70 | 
28 | FC1(F)Oc2ccc(Nc3nnc(-c4cccnc4NCc4ccccn4)o3)cc2O1 | 4.88 | 6.11 | 
29 | c1ccc(CNc2ccncc2-c2nnc(Nc3ccc4c(c3)OCCO4)o2)nc1 | < 4.52 |  | 
30 | c1cnc(NCC2CCCO2)c(-c2nnc(Nc3ccc4c(c3)OCO4)o2)c1 (centres undefined) | 4.81 | 6.48 | 
31 | FC(F)(F)c1ccc(-c2nnc(Nc3ccc4c(c3)OCCO4)o2)c(NCc2ccccn2)n1 | < 4.52 |  | 
32 | Fc1ccc(CNc2ncccc2-c2nnc(Nc3ccc4c(c3)OCO4)o2)cc1F | 5.66 | 7.29 | 
33 | c1coc(CNc2ncccc2-c2nnc(Nc3ccc4c(c3)OCO4)o2)c1 | 5.31 | 6.89 | 
34 | CS(=O)(=O)Nc1ccc(CNc2ncccc2-c2nnc(Nc3ccc4c(c3)OCO4)o2)cc1 | 5.42 | 7.15 | 
35 | COc1ccc(CNc2ncccc2-c2nnc(Nc3ccc4c(c3)OCCO4)o2)cc1 | 5.80 | 7.64 | 
36 | Cc1ccc(-c2nnc(Nc3ccc4c(c3)OCCO4)o2)c(NCc2ccccn2)n1 | 5.62 | 7.00 | 
37 | c1ccc(CNc2ncncc2-c2nnc(Nc3ccc4c(c3)OCCO4)o2)nc1 | < 4.52 |  | 
38 | c1ccc(CNc2ccsc2-c2nnc(Nc3ccc4c(c3)OCCO4)o2)nc1 | 5.36 | 7.66 | pEC50 (NCI/ADR-RES): 7.34; pIC50 (Tubulin [2]): 7.12; Cmax [3]: 59.2 µM; half-life [4]: 0.75 h; AUC(0-t) at 4 h [5]: 102 µM·h
